Where a SMILES comes first, the peptide text is derived from it. The star is where a group is joined. Doxorubicin(3'-N) = COc1cccc2c1C(=O)c1c(O)c3c(c(O)c1C2=O)C[C@@](O)(C(=O)CO)C[C@@H]3O[C@H]1C[C@H](N*)[C@H](O)[C@H](C)O1; Hexanoyl(6-maleimido) = O=C1C=CC(=O)N1CCCCCC(=O)*
Tests used:
[1] = Tissue distribution of released doxorubicin in orthotopic liver CT26 tumor mice; type: in vivo, BALB/c mice
Method: • Objective: To investigate the tissue distribution of activating drugs in liver tumors. • Test animals: BALB/c mice, 6-8 weeks old, all female.
• 1) CT26 cells were purchased from ATCC. […] Randomization was performed when the tumor size reached 800-1000 mm^3. Tumor tissue was then extracted and cut into 100 mm^3 tumor tissue pieces and transplanted orthotopically into BALB/c mouse livers. • 3) Administration process: After 14 days, when the orthotopically transplanted tumor grew, a group of 36 orthotopically transplanted tumor mice were treated with drugs. […] The previously published use of EMC-AANL-DOX was for breast cancer treatment.

[2] = molecular target: HSA (Homo sapiens, UniProt P02768); assay: Binding of compounds with HSA (albumin coupling); details: compound with HSA 3:1, 37° C. for 3 h
Method: HSA was dissolved in sterile water. The compound was combined with HSA at a ratio of 3:1 (4.8 umol/mL, 1.6 umol/mL), and reacted in a water bath at 37° C. for 3 h. The reaction solution was taken out, and the unbound compound was filtered by pressurized ultrafiltration membrane, diluted with normal saline and filtered for 3 times to obtain the semi-finished product.

[3] = tested on: M2 macrophages; assay: Cytotoxicity screening, inhibition rate of M2 macrophages at 10 uM; type: cell-based, C57BL/6 mice; details: 10 uM drug per well, 3 wells, relative to the drug-free group
Method: After the cell count in Example 13, the cell concentration was adjusted with the culture medium, and the cells were seeded in a 96-well culture plate at […] of cell suspension per well, wherein the seeding concentration of CD8+ T cells was 100000 cells/well, and the seeding concentration of M2 macrophages was 20000 cells/well. The 96-well plate was incubated overnight for 24 hour at 37° C. in a carbon dioxide (5%) incubator. After 24 hours, 100 ul of cell culture solutions containing different concentrations of drugs were added to the 96-well culture plate. At the same time, a control well (0.1% DMSO) with no drug added and only the corresponding drug solvent and a zero-adjusted well (Blank) with only medium and no cells added was set. Each set was prepared in triplicate and the plates were incubated for 48 hours at 37° C. in a 5% CO2 incubator. After 48 hours, 20 μl MTT (5 mg/ml) was added to each well and the incubation was continued for 4 hours. The culture medium was then gently aspirated, and 150 μl DMSO was added to each well as solvent for dissolution. After dissolution, the absorbance at 490 nm was measured with a microplate reader.
Cytotoxicity screening experiments for some compounds were performed for M2 macrophage inhibition as in embodiment 14.

[4] = tested on: CT26 tumor; assay: CT26 tumor immune model, tumor suppression and CD8+ T cell analysis; type: in vivo, BALB/c mice
Method: • 1) CT26 cells were purchased from ATCC. […] The corresponding 5×10^6 cells were injected subcutaneously into the back of […] mice. After the size of tumors reached at least 100 mm^3, the mice were randomized into groups. Treatment was then initiated, with the day of treatment initiation being Day 1. • 3) The course of treatment. The drug was administered at an equimolar dose of 36 umol/kg. The control group was given normal saline. The drug was administered once a week for three week. • 4) Tumor CD8+ T cell analysis. Tumor tissue was homogenized, individual cells in the tumor were filtered, dissociated and washed twice with buffer, and then incubated with leukocyte common antigen CD45-PE and CD8-FITC-labeled antibodies for 1 hour at room temperature. The cells were washed twice with phosphate buffered saline containing 1% fetal bovine serum, and then the proportion of T lymphocyte antigen (CD8)-positive cells in leukocyte common antigen (CD45)-positive cells was analyzed by flow cytometry. An increase in the ratio indicates an increase in T lymphocytes and therefore an improvement in the immunity of the animal to the tumor. • 5) The grouping and test results are shown in Table 7.

[5] = type: physicochemical
Excerpt: The freeze-dried products EMC-AANL-DOX, HSA-EMC-AANL-DOX, HSA-QHL-087-DOX and HSA-QHL-087-N-CBP prepared by the embodiment of the disclosure are subpackaged in a sterile room and redissolved by water for injection.

[6] = tested on: Human breast cancer MDA-MB435 tumor tissue homogenate; assay: Activation in MDA-MB435 tumor tissue homogenate; type: biochemical; details: MDA-MB435 homogenate pH 6.0, 37° C., 1 mg/ml
Method: (§1) In the experiments of the present disclosure, 1 mg/ml of the sample compound was added to 100 μg of acidified tumor tissue homogenate (pH 6.0) at 37° C. The enzyme in the tumor tissue homogenate can cause the release of doxorubicin, and the reduction of compound and the increase of doxorubicin could be detected by HPLC to compare the activation efficiency of the drug in the tumor tissue.

[7] = tested on: Human ovarian carcinoma SK-OV-3 tumor tissue homogenate; assay: Activation in SK-OV-3 tumor tissue homogenate; type: biochemical; details: SK-OV-3 homogenate pH 6.0, 37° C., 1 mg/ml
Method: as §1

[8] = tested on: Human colon cancer HT-29 tumor tissue homogenate; assay: Activation in HT-29 tumor tissue homogenate; type: biochemical; details: HT-29 homogenate pH 6.0, 37° C., 1 mg/ml
Method: as §1

[9] = tested on: Human pancreatic carcinoma Panc-1 tumor tissue homogenate; assay: Activation in Panc-1 tumor tissue homogenate; type: biochemical; details: Panc-1 homogenate pH 6.0, 37° C., 1 mg/ml
Method: as §1

[10] = tested on: Human non-small cell lung cancer A549 tumor tissue homogenate; assay: Activation in A549 tumor tissue homogenate; type: biochemical; details: A549 homogenate pH 6.0, 37° C., 1 mg/ml
Method: as §1

[11] = tested on: Human renal carcinoma OS-RC-2 tumor tissue homogenate; assay: Activation in OS-RC-2 tumor tissue homogenate; type: biochemical; details: OS-RC-2 homogenate pH 6.0, 37° C., 1 mg/ml
Method: as §1

[12] = tested on: Human heart; assay: Activation in human heart homogenate; type: biochemical; details: pH 6.0, 37° C., 1 mg/ml
[13] = drug 36 umol/kg once a week for three weeks, PD-1 antibody 5 mg/kg

HSA, sequence (P02768 25-609): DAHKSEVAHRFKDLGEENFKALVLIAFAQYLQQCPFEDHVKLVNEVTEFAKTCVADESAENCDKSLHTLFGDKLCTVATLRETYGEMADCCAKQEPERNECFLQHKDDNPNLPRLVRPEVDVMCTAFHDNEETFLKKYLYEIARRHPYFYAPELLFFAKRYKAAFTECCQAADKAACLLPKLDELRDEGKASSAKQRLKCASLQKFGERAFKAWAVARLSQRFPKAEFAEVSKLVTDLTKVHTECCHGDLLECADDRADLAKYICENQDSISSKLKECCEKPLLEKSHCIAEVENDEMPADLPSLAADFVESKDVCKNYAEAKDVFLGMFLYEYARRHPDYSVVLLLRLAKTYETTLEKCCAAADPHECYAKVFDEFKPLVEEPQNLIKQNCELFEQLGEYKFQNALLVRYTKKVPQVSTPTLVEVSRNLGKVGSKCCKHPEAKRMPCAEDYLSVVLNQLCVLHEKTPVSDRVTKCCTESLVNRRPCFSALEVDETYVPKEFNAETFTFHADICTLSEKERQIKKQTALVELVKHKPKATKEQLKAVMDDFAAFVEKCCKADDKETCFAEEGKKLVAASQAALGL

Row | Compound | doxorubicin delivery and activation compared with EMC-AANL-DOX ([1]; liver and in situ liver tumor) | distribution of active doxorubicin (FIGS. 8 and 9) ([1]; tissues collected at 1-72 hr, AUClast) | binding rates of HSA [2] [%] | Inhibition rate of M2 macrophages [3] [%] | CD8:CD45 (%) ([4]; CD8-positive among CD45-positive cells in tumor, flow cytometry) | therapeutic effect combined with PD-1, in words ([4]; combined with PD-1 versus single drug) | Tumor inhibition rate (%) Day 28 [4, 13] [%] | Tumor volume (mm^3) Day 28 [4, 13] [mm^3] | Solubility in water for injection [5] | Compound activation ratios (%) [6] [%] | Compound activation ratios (%) [7] [%] | Compound activation ratios (%) [8] [%] | Compound activation ratios (%) [9] [%] | Compound activation ratios (%) [10] [%] | Compound activation ratios (%) [11] [%] | Compound activation ratios (%) [12] [%]
1 | COc1cccc2c1C(=O)c1c(O)c3c(c(O)c1C2=O)C[C@@](O)(C(=O)CO)C[C@@H]3O[C@H]1C[C@H](NC(=O)[C@H](CC(C)C)NC(=O)[C@H](CC(N)=O)NC(=O)[C@H](C)NC(=O)[C@H](C)NC(=O)CCOCCOCCNC(=O)CCN2C(=O)C=CC2=O)[C@H](O)[C@H](C)O1 [QHL-087-DOX] | enhanced doxorubicin delivery and activation in situ liver cancer | mainly distributed in the liver and liver orthotopic tumors |  |  |  |  |  |  |  |  |  |  |  |  |  | 
2 | COc1cccc2c1C(=O)c1c(O)c3c(c(O)c1C2=O)C[C@@](O)(C(=O)CO)C[C@@H]3O[C@H]1C[C@H](NC(=O)[C@H](CC(C)C)NC(=O)[C@H](CC(N)=O)NC(=O)[C@H](C)NC(=O)[C@H](C)NC(=O)CCCCCN2C(=O)C=CC2=O)[C@H](O)[C@H](C)O1 [EMC-AANL-DOX] ({Hexanoyl(6-maleimido)}-AANL-{Doxorubicin(3'-N)}) |  |  | 62 | 34.6 | 8.9 | improved compared with single drug | 66.9 | 624.5 ± 313.6 | Insolubility | 42.3 | 58.4 | 49.4 | 54.8 | 46.4 | 46.4 | 0.2

Source: patent US20230414771A1, “PREPARATION AND USE OF IMMUNOSTIMULATORY CONJUGATED COMPLEXES FOR TARGETED DELIVERY AND ACTIVATION” (YAFEI SHANGHAI BIOLOGY MEDICINE SCIENCE & TECHNOLOGY CO., …, priority 2020, published 2023)
